# From patent publication US10071080B2, “MIF inhibitors for the acute or chronic treatment of pulmonary hypertension” (MIFCARE, priority 2014, dated 2018)
# Key:
# [1] = target: T1, recombinant human MIF (Homo sapiens, UniProt P14174); assay: MIF tautomerase assay using 4-hydroxyphenylpyruvate (4-HPP); type: biochemical; conditions: for inhibition at 0.001 µM: compounds at 1 nM, substrate 4-HPP, compared to positive control with rhMIF alone
# T1 construct: purchased RayBiotech
# T1 sequence (P14174 2-115 limits assumed): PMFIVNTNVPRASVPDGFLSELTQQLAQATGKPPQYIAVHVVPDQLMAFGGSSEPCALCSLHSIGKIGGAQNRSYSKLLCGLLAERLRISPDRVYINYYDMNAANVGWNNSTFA
# Protocol: Tautomerase activity was assessed using 4-hydroxyphenylpyruvate (4-HPP) as substrate. 4-HPP was dissolved in 50 mM ammonium acetate at pH 6.0, allowed to equilibrate to room temperature and stored at −20° C. 300 ng/mL of recombinant human MIF (rhMIF; RayBiotech, Le Perray en Yvelines, France) and tested compounds were pre-incubated at room temperature for 15 min. Tautomerase activity was assessed at room temperature, by adding 4-HHP to a 96-well plate containing 0.435 M boric acid at pH 6.6 and rhMIF with or without (positive control) tested compounds (1 nM), and by measuring the increase in absorbance at 320 nm over 10-360 s using the 2103 EnVision™ Multilabel Plate Readers (PerkinElmer, Villebon-sur-Yvette, France). Compounds were tested at 1 nM. The assay was replicated 3 to 6 times independently.
# [2] = tested on: MCT-injected rats; assay: Rodent model of pulmonary hypertension (monocrotaline); type: in vivo; conditions: for mean pulmonary arterial pressure (mPAP): 2 weeks; for degree of established PH: started one week after MCT
# Protocol: Animal studies were approved by the administrative panel on animal care at the Univ. Paris-Sud, Le Plessis-Robinson, France. Young male Wistar rats (100 g, Janvier Labs, France) were studied 3 weeks after a single subcutaneous injection of monocrotaline (60 mg/kg) (Sigma-Aldrich, Saint-Quentin Fallavier, France), or vehicle. One week after a single subcutaneous injection of monocrotaline (MCT), rats were randomly divided into several groups and treated for 2 weeks with • (example 3) daily intraperitoneal injections of ISO-1, compound 1 of the invention (M3), M41, or vehicle (vehicle A: 50% (v/v) DMSO (Dimethyl sulfoxide) in normal saline for i.v. administrations) at a dose of 10 mg·kg^−1·day^−1; or • (example 4) daily per os administration of compounds of the invention, or vehicle (vehicle B: 33% DMSO, 45% propylene glycol, 21% saline) at a dose of 30 mg·kg^−1·day^−1.
# Animals were anesthetized with isoflurane. A polyvinyl catheter was introduced into the right jugular vein and pushed through the right ventricle into the pulmonary artery. Cardiac output in rat was measured using the thermodilution method. After measurement of hemodynamic parameters, the thorax was opened and the left lung immediately removed and frozen. The right lung was fixed in the distended state with formalin buffer. The right ventricular hypertrophy (RVH) index and the percentage of muscularized vessels were determined as previously described (Guignabert C 2009 J Faseb 23 (12): 4135-4147).
# [3] = tested on: DU-145 cell line; assay: MTT assay, cell proliferation and survival, DU-145; type: cell-based; conditions: 24 h, effect significantly superior compared to ISO-1 (p<0.05); for cell survival: 0% FCS, at 100 μM and 50 μM
# Protocol: (§1) P-ECs were isolated and cultured from lung specimens of patients with idiopathic pulmonary arterial hypertension (iPAH) as previously described (Tu et al., Am J Respir Cell Mol Biol. 2012). The isolated P-ECs were strongly positive for acetylated low-density lipoprotein coupled to Alexa 488 (Alexa488-Ac-LDL), von Willebrand factor (vWF), CD31, and for Ulex europaeus agglutinin-1 (UEA-1) and negative for alpha-smooth muscle actin (α-SMA). DU-145 cell lines and iPAH ECs were grown in MCDB131 medium (Fisher, Illkirch Cedex, France) supplemented with 10% fetal calf serum (FCS), penicillin-streptomycin solution, glutamine, HEPES and amphotericine.
# (§2) To determine the impact of the compounds of the invention on the proliferation and the survival of DU-145 cell line and iPAH P-ECs, the methyl tetrazolium (MTT) assay was performed. To this aim, cells were plated in a 96-well plate and cultured in MCDB131 medium (Fisher, Illkirch Cedex, France) supplemented with 10% fetal calf serum (FCS) for 24 h. DU-145 and iPAH ECs monolayers were then washed and 50 or 100 μM of tested compounds were added with 0% (for cell survival assessment) or 10% (for cell proliferation assessment) of FCS for 24 h. Then, cells were incubated with 5 mg/mL of MTT for 6 h of incubation. At the end of the incubation time, medium was removed, dimethylsulfoxide (DMSO) was added in each well and absorbance was recorded at 590 nm using the microplate spectrophotometer system EnVision (PerkinElmer, Waltam, USA).
# [4] = tested on: iPAH P-ECs (human pulmonary endothelial cells); assay: MTT assay, cell proliferation and survival, iPAH P-ECs; type: cell-based; conditions: iPAH EC, 24 h, effect significantly superior compared to ISO-1 (p<0.05); for cell survival: 0% FCS, at 100 μM and 50 μM
# Protocol: as §1, §2
# [5] = 10 mg/kg daily intraperitoneal, compared to MCT-injected rats treated with vehicle A
# [6] = daily intraperitoneal 10 mg/kg/day for 2 weeks, day 21
# [7] = 30 mg/kg oral daily, compared to MCT-injected rats treated with vehicle B, p<0.05
# [8] = oral daily 30 mg/kg/day for 2 weeks
structure (smiles),measurement,setting,value
"Cc1ccc2oc(=S)n(Cc3cccc(O)c3)c2c1 [Compound 1, 3-(3-hydroxybenzyl)-5-methylbenzo[d]oxazole-2(3H)-thione]",inhibitory effect against the MIF tautomerase activity (in words),"[1]; compound 1 compared to benzoxazol-2-one analogue M41, compounds of the invention compared to ISO-1",good inhibitory effect
same,inhibition at 0.001 µM,[1],41%
same,mean pulmonary arterial pressure (mPAP),[2]; [5],substantial reduction in values of mPAP
same,degree of established PH,[2]; [6],substantially attenuates the degree of established PH
same,"mPAP, compared to MCT-injected rats treated with ISO-1","[2]; same dose, 10 mg/kg, p=0.0855",higher beneficial effects in mPAP
"COc1ccccc1Cn1c(=S)oc2ccc(C)cc21 [Compound 2, 3-(2-methoxybenzyl)-5-methylbenzo[d]oxazole-2(3H)-thione]",inhibition at 0.001 µM,[1],36%
"Cc1ccc2oc(=S)n(Cc3ccccc3)c2c1 [Compound 3, 3-benzyl-5-methylbenzo[d]oxazole-2(3H)-thione]",inhibition at 0.001 µM,[1],35%
"Cc1ccc2oc(=S)n(Cc3ccc(F)c(O)c3)c2c1 [Compound 4, 3-(4-fluoro-3-hydroxybenzyl)-5-methylbenzo[d]oxazole-2(3H)-thione]",inhibition at 0.001 µM,[1],39%
same,cell survival,[3],decrease significantly cell survival
same,cell survival,[4],decrease significantly cell survival
same,mean pulmonary arterial pressure (mPAP),[2]; [7],substantial reduction
same,degree of established PH,[2]; [8],substantially attenuates the degree of established PH
"Oc1cc(Cn2c(=S)oc3ccc(C(F)(F)F)cc32)ccc1F [Compound 5, 3-(4-fluoro-3-hydroxybenzyl)-5-(trifluoromethyl)benzo[d]oxazole-2(3H)-thione]",inhibition at 0.001 µM,[1],43%
same,cell survival,[3],decrease significantly cell survival
same,cell proliferation,"[3]; 10% FCS, 50 or 100 μM",inhibit significantly cell proliferation
same,cell survival,[4],decrease significantly cell survival
same,cell proliferation,"[4]; 10% FCS, 50 or 100 μM",inhibit significantly cell proliferation
same,mean pulmonary arterial pressure (mPAP),[2]; [7],substantial reduction
same,"degree of established PH, compared with treatment by sildenafil","[2]; compound 5 at 30 mg/kg oral daily for 2 weeks, sildenafil at 100 mg/kg",substantially attenuates the degree of established PH
same,degree of established PH,[2]; [8],substantially attenuates the degree of established PH
"Cc1ccc2oc(=O)n(Cc3cccc(O)c3)c2c1 [Compound M41, reference compound]",inhibition at 0.001 µM,[1],29%
same,mortality rate,"[2]; MCT-injected rats, 10 mg/kg/day intraperitoneal",5/6
same,degree of established PH,[2]; [6],substantially attenuates the degree of established PH
"COC(=O)CC1CC(c2ccc(O)cc2)=NO1 (stereo not shown) [ISO-1, reference compound]",inhibition at 0.001 µM,[1],21%
same,mean pulmonary arterial pressure (mPAP),[2]; [5],substantial reduction in values of mPAP
